Assay results: ChEMBL document CHEMBL1140032, “Furoxan-, alkylnitrate-derivatives and related compounds as anti-trypanosomatid agents: mechanism of action studies” (2008)
Activity calls are given as the source filed them. No cut-off for these calls is given here.

Columns and labels:
Trypanosoma cruzi [1] = test: Antitrypanosomal activity against Trypanosoma cruzi Tulahuen 2 assessed as inhibition of growth of epimastigotes at 25 uM after 5 days by MTT assay relative to control; type: functional; settings: Tulahuen 2, 120 h, read-out: GI
Trypanosoma cruzi [2] = test: Antitrypanosomal activity against Trypanosoma cruzi CL Brener assessed as parasite viability after 5 days by MTT assay; type: functional; settings: 120 h, read-out: ID50 (the source's name)
Trypanosoma cruzi [3] = test: Antitrypanosomal activity against Trypanosoma cruzi Y assessed as parasite viability after 5 days by MTT assay; type: functional; settings: 120 h, read-out: ID50 (the source's name)
Leishmania braziliensis = test: Antileishmanial activity against Leishmania braziliensis MHOM/BR/00/LTB300 assessed as parasite viability after 5 days by MTT assay; type: functional; settings: 120 h, read-out: ID50 (the source's name)
Leishmania pifanoi [4] = test: Antileishmanial activity against Leishmania pifanoi MHOM/VE/57/LV135 assessed as parasite viability after 5 days by MTT assay; type: functional; settings: 120 h, read-out: ID50 (the source's name)
Trypanosoma cruzi [5] = test: Antitrypanosomal activity against Trypanosoma cruzi Tulahuen 2 assessed as inhibition of epimastigotes growth after 5 days by MTT assay relative to control; type: functional; settings: Tulahuen 2, 120 h, read-out: ID50 (the source's name)
Trypanosoma cruzi [6] = test: Inhibition of Trypanosoma cruzi Y mitochondrial dehydrogenase activity by MTT assay relative to control
Trypanosoma cruzi [7] = test: Antitrypanosomal activity against Trypanosoma cruzi CL Brener assessed as lysis of trypomastigotes at 25 uM after 2 hrs relative to control; type: functional
Trypanosoma cruzi [8] = test: Antitrypanosomal activity against Trypanosoma cruzi CL Brener assessed as lysis of trypomastigotes at 25 uM after 19 hrs relative to control; type: functional
Trypanosoma cruzi [9] = test: Antitrypanosomal activity against Trypanosoma cruzi CL Brener assessed as lysis of trypomastigotes at 50 uM after 2 hrs relative to control; type: functional
Trypanosoma cruzi [10] = test: Antitrypanosomal activity against Trypanosoma cruzi CL Brener assessed as lysis of trypomastigotes at 50 uM after 19 hrs relative to control; type: functional
[11] = Inhibition of nitric oxide production by Griess assay; type: functional; parameters: concentration or dose not given beside the values; settings: dose or concentration not given here
Leishmania pifanoi [12] = test: Antileishmanial activity against Leishmania pifanoi MHOM/VE/57/LV135 at 5.0 uM after 5 days assessed as parasite viability by MTT assay; type: functional; settings: 120 h, read-out: GI
Trypanosoma cruzi [13] = test: Antitrypanosomal activity against Trypanosoma cruzi CL Brener in Vero cells assessed as endocytic index at 2.5 uM; type: functional
Trypanosoma cruzi [14] = test: Antitrypanosomal activity against Trypanosoma cruzi CL Brener assessed as lysis of trypomastigotes at 10 uM after 2 hrs relative to control; type: functional
Trypanosoma cruzi [15] = test: Antitrypanosomal activity against Trypanosoma cruzi CL Brener clone assessed as lysis of trypomastigotes at 10 uM after 3 hrs relative to control; type: functional
Trypanosoma cruzi [16] = test: Antitrypanosomal activity against Trypanosoma cruzi CL Brener clone assessed as lysis of trypomastigotes at 10 uM after 26 hrs relative to control; type: functional
Trypanosoma cruzi [17] = test: Antitrypanosomal activity against Trypanosoma cruzi CL Brener in Vero cells assessed as infection; type: functional
Trypanosoma cruzi [18] = test: Antitrypanosomal activity against Trypanosoma cruzi CL Brener in Vero cells assessed as number of amastigote infected; type: functional

IC50 (Trypanosoma cruzi [5]) [µM] | Structure (SMILES) | IC50 (Trypanosoma cruzi [2]) [µM] | IC50 (Trypanosoma cruzi [3]) [µM] | IC50 (Leishmania braziliensis) [µM] | IC50 (Leishmania pifanoi [4]) [µM] | also measured
10 | COc1ccccc1NCCS(=O)(=O)c1nonc1-c1ccccc1 | > 50 | 50 | 11.6 | 15.8 | 
6.5 | C=CS(=O)(=O)c1nonc1-c1ccccc1 | 22.2 | 23.5 | 8 | 20.4 | 
25 | O=S(=O)(CCO)c1no[n+]([O-])c1-c1ccccc1 |  |  |  |  | 
7.5 | CCOCCS(=O)(=O)c1nonc1-c1ccccc1 | > 50 | > 50 | > 50 | > 50 | 
10 | O=S(=O)(c1ccccc1)c1nonc1-c1ccccc1 | > 50 | > 50 | > 50 | > 50 | 
7.5 | CCOc1no[n+]([O-])c1S(=O)(=O)c1ccccc1 |  |  |  |  | 

The remaining lines, values behind:

Structure (SMILES) | IC50 (Trypanosoma cruzi [5]) [µM] | IC50 (Trypanosoma cruzi [2]) [µM] | IC50 (Trypanosoma cruzi [3]) [µM] | IC50 (Leishmania braziliensis) [µM] | IC50 (Leishmania pifanoi [4]) [µM] | also measured
NC(=O)CSc1c(-c2ccccc2)no[n+]1[O-] |  | > 50 | > 50 | > 50 | > 50 | inhibition of growth at 25 µM (Trypanosoma cruzi [1]): 19%
NC(=O)CSc1nonc1-c1ccccc1 |  | > 50 | > 50 | > 50 | > 50 | inhibition of growth at 25 µM (Trypanosoma cruzi [1]): 17%
CC1CS(=O)(=O)CCN1/N=C/c1ccc([N+](=O)[O-])o1 (centres undefined) [NIFURTIMOX] | 7.7 | 4.9 | 9.7 |  |  | 
C=CS(=O)(=O)c1c(-c2ccccc2)no[n+]1[O-] | 6.5 | 2.6 | 6.8 | 10 | 26.7 | Activity (Trypanosoma cruzi [6]): Active; Activity (Trypanosoma cruzi [7]): 33%; Activity (Trypanosoma cruzi [8]): 100%; Activity (Trypanosoma cruzi [9]): 62%; Activity (Trypanosoma cruzi [10]): 100%
CCOCCS(=O)(=O)c1c(-c2ccccc2)no[n+]1[O-] | 10 | 1.5 | 3.4 | 4.1 | 4.2 | inhibition [11]: 10%; Activity (Trypanosoma cruzi [6]): Active; Activity (Trypanosoma cruzi [8]): 100%; Activity (Trypanosoma cruzi [9]): 68%; Activity (Trypanosoma cruzi [10]): 100%
COc1ccccc1NCCS(=O)(=O)c1no[n+]([O-])c1-c1ccccc1 | 8 | 7.2 | 26.2 | 9.9 | 33.8 | inhibition [11]: < 1%
NC(=O)CS(=O)(=O)c1nonc1-c1ccccc1 |  | > 50 | > 50 | > 50 | > 50 | inhibition of growth at 25 µM (Trypanosoma cruzi [1]): 27%
NC(=O)CS(=O)(=O)c1no[n+]([O-])c1-c1ccccc1 | 25 | > 50 | 48 | > 50 | > 50 | 
CCCCCCCCCCCCCCCCOP(=O)([O-])OCC[N+](C)(C)C [MILTEFOSINE] |  |  |  | 9 |  | inhibition of growth at 5 µM (Leishmania pifanoi [12]): 85.5%
CCOCCS(=O)(=O)c1no[n+]([O-])c1-c1ccccc1 | 17 | > 50 | > 50 | > 50 | > 50 | inhibition [11]: < 1%
CCSCCS(=O)(=O)c1no[n+]([O-])c1-c1ccccc1 | 5 | 37.1 | 6 | > 50 | > 50 | inhibition [11]: < 1%
CN(C)CCCOc1no[n+]([O-])c1S(=O)(=O)c1ccccc1 | 3 |  |  |  |  | 
COc1ccccc1NCCS(=O)(=O)c1c(-c2ccccc2)no[n+]1[O-] | 7.5 | 5 | 9.2 | 13.7 | 6.5 | inhibition [11]: 20.8%
O=S(=O)(c1ccccc1)c1c(-c2ccccc2)no[n+]1[O-] | 5 | 4.2 | 4.3 | 1.6 | 3.8 | inhibition [11]: 10.3%
CCSCCS(=O)(=O)c1c(-c2ccccc2)no[n+]1[O-] | 7.5 | 0.9 | 3.9 | 4 | 4.6 | inhibition [11]: 10%
NC(=O)CSc1no[n+]([O-])c1-c1ccccc1 |  | > 50 | > 50 | > 50 | > 50 | inhibition of growth at 25 µM (Trypanosoma cruzi [1]): 12%
CCSCCS(=O)(=O)c1nonc1-c1ccccc1 |  | > 50 | 28.7 | > 50 | > 50 | inhibition of growth at 25 µM (Trypanosoma cruzi [1]): 25%
NC(=O)CS(=O)(=O)c1c(-c2ccccc2)no[n+]1[O-] | 10 | 3.7 | 6 | 14.3 | > 50 | Activity (Trypanosoma cruzi [13]): 10.1; Activity (Trypanosoma cruzi [6]): Active; Activity (Trypanosoma cruzi [8]): 100%; Activity (Trypanosoma cruzi [10]): 100%; Activity (Trypanosoma cruzi [14]): 0%; Activity (Trypanosoma cruzi [15]): 5%; Activity (Trypanosoma cruzi [16]): 100%; Activity (Trypanosoma cruzi [17]): 6.3%; Activity (Trypanosoma cruzi [18]): 1.6
[O-][n+]1onc(Br)c1-c1ccccc1 | 13 |  |  |  |  | 
O=S(=O)(c1ccccc1)c1no[n+]([O-])c1S(=O)(=O)c1ccccc1 | 3.5 |  |  |  |  | 
O=S(=O)(c1ccccc1)c1no[n+]([O-])c1-c1ccccc1 | 7.5 | 9.1 | > 50 | 20.2 | 20.5 | inhibition [11]: < 1%
C=CS(=O)(=O)c1no[n+]([O-])c1-c1ccccc1 | 5.5 | 8.2 | 11.1 | 39.1 | > 50 | 
O=C(Cn1ccnc1[N+](=O)[O-])NCc1ccccc1 [BENZNIDAZOLE] | 4.5 |  |  |  | 3.8 | 
CCOC(=O)COc1no[n+]([O-])c1S(=O)(=O)c1ccccc1 | 7.5 |  |  |  |  | 
